Experiments:
Format in all cases: cell-based
NTCP = target: T1, NTCP (Homo sapiens, UniProt Q14973); assay: TCA-d4 uptake assay (LC-MS/MS) in HepG2 NTCP cells
T1 construct: His-tag; expressed in transfected cells
T1 sequence (Q14973 1-349): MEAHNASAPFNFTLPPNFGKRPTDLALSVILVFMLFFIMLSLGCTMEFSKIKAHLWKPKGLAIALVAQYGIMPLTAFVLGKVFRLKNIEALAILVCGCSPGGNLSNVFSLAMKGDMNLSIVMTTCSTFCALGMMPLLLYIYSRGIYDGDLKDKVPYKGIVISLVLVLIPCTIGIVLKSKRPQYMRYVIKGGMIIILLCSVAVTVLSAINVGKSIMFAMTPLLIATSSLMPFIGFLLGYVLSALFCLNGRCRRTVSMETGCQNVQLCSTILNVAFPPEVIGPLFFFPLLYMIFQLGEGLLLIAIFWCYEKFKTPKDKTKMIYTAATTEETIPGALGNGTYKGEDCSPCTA
Procedure: HepG2 NTCP cells were seeded into 12-well plates at a density of 2×10^5/well. After a 48 h incubation, cells were carefully washed with uptake buffer (10 mM HEPES, 100 mM NaCl, 2 mM KCl, 1 mM MgCl2, 1 mM CaCl2, pH 7.4) twice and incubated in 0.5 mL of uptake buffer for 15 min at 37 °C. […] Cells were then allowed to take up 5 μM of TCA-d4 at 37 °C for another 15 min. After incubation, cells were washed with uptake buffer three times and lysed with 200 μL of ethanol. The cell lysate was transferred to a new tube and the supernatant was collected by centrifugation at 12,000 rpm for 10 min at 4°C. TCA-d4 uptake was quantified with LC-MS/MS.
Prepared samples were separated on an Agilent 1290 II system (CA, United States) equipped with an XSelect HSS T3 C18 reverse phase column (2.1 × 150 mm, 3.5 μm). […] To separate TCA-d4, the mobile phase consisted of solution A (5 mM ammonium formate) and solution B (methanol). […]
Targeted analytes were monitored in a negative multiple-reaction monitoring (MRM) mode on an Agilent 6495C triple quadrupole LS/MS system (CA, United States). […] Leucine-d3 and TCA-d4 were monitored in negative ion mode with MRM ion pairs at 135.1 > 89.2 (collision energy: 14 eV) and 518.0 > 124.0 (collision energy: 65 eV), respectively. […]

BMP reporter gene = BMP reporter gene assay (Id1-Luc) in HEK293T cells; conditions: HEK293T cells with Id1-Luc reporter; 3 μM, 12 h
Procedure: HEK293T cells transfected with Id1-Luc reporter construct were seeded into a 96-well plate (190 μL/well of 3,000 cells/mL)) and then treated with 3 μM JH7 for 12 h. FK506 and DMSO were used as positive and negative controls, respectively. Cells were removed 100 μL DMEM and added in 40 μL Bright-Glo™ Luciferase reagent (per well) and placed on a plate-shaker for 10 min. Bright-Glo™ Luciferase Assay was performed with Ensight plate reader.

LAT1 [1] = target: T2, LAT1 (Homo sapiens, UniProt Q01650); assay: leucine-d3 uptake assay (LC-MS/MS) in LS174T cells; conditions: 5 μM leucine-d3, 15 min uptake, mean ± s.d., n = 3, read-out: IC50, inhibition of leucine-d3 uptake
T2 construct: endogenous in cells; host or cells: LS174T (wild type)
T2 sequence (Q01650 whole entry): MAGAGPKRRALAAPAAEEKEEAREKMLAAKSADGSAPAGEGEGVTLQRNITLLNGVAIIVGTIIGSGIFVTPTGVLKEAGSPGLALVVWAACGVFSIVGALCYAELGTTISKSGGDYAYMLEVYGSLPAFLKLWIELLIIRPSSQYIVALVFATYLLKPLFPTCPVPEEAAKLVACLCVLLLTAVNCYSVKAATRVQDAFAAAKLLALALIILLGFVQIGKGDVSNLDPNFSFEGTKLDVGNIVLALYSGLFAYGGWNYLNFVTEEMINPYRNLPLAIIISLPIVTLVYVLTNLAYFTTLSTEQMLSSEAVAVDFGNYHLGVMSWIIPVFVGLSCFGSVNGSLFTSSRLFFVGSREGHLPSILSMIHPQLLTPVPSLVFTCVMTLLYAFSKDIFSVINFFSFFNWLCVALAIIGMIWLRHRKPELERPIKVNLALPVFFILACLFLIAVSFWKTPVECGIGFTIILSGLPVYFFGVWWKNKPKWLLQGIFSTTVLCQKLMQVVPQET
T2 sequence (P08195 102-630 partner): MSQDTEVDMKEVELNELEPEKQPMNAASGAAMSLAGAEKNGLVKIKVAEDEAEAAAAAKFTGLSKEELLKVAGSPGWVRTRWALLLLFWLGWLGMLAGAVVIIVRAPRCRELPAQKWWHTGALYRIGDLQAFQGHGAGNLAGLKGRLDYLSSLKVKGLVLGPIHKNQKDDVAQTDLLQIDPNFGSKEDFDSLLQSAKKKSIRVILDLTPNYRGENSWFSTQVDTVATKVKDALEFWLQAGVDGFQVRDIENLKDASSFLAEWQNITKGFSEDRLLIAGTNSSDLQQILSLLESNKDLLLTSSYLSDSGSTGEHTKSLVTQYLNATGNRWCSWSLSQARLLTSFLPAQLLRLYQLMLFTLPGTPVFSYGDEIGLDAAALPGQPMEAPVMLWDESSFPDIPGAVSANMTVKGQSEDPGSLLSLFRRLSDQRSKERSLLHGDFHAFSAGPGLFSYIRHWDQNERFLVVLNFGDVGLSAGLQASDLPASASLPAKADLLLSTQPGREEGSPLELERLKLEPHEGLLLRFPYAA
Procedure: LS174T cells were seeded into 12-well plates at a density of 1×10^6/well. After a 48 h incubation, cells were carefully washed with prewarmed Na^+-free uptake buffer (10 mM Tris-HCl, 150 mM KCl, 5 mM MgCl2, 1 mM EGTA, pH 7.4) twice and incubated in 0.5 mL of Na^+-free uptake buffer at 37 °C for 15 min. Cells were washed with Na^+-free uptake buffer once again and incubated with different concentrations of JPH203 or DMSO at 37 °C for 15 min. Cells were then allowed to take up 5 μM of leucine-d3 at 37 °C for another 15 min. After incubation, cells were washed with Na^+-free uptake buffer three times and lysed with 200 μL of acetonitrile. The cell lysate was transferred to a new tube and the supernatant was collected by centrifugation at 12,000 rpm for 10 min at 4°C. Leucine-d3 uptake was quantified with LC-MS/MS.
Prepared samples were separated on an Agilent 1290 II system (CA, United States) equipped with an XSelect HSS T3 C18 reverse phase column (2.1 × 150 mm, 3.5 μm). […]
Targeted analytes were monitored in a negative multiple-reaction monitoring (MRM) mode on an Agilent 6495C triple quadrupole […] system (CA, United States). […] Leucine-d3 and TCA-d4 were monitored in negative ion mode with MRM ion pairs at 135.1 > 89.2 (collision energy: 14 eV) and 518.0 > 124.0 (collision energy: 65 eV), respectively. […]

LAT1 [2] = target: T2, LAT1; assay: 3H-leucine uptake assay in LS174T cells; conditions: read-out: IC50, inhibition of 3H-leucine uptake, radioactive method, mean ± s.d., n = 3
Procedure: The inhibitory activity of JPH203 on LAT1 was analyzed by measuring the cell uptake of ^3H-leucine as previously described with minor modifications ([Oda et al., 2010]). Similar to leucine-d3 uptake assay, LS174T cells were washed twice and incubated in Na^+-free uptake medium (10 mM Tris-HCl, 150 mM KCl, 5 mM MgCl2, 1 mM EGTA, pH 7.4) for 15 min. Cells were added with JPH203 or DMSO and incubated for another 15 min before adding ^3H-leucine. After 15 min incubation, cells were washed three times and lysed with 0.2 N NaOH plus 0.2% SDS. The cell lysate was transferred to a new tube containing 1 mL of optiphase supermix. ^3H-leucine uptake was quantified with a scintillation counter.

Row | IC50 (NTCP; 5 μM TCA-d4, 15 min uptake, mean ± s.d., n = 3, read-out: IC50, inhibition of TCA-d4 uptake) | TCA-d4 uptake (% of control) (NTCP; rapafucins at a final concentration of 2 μM) | IC50 (LAT1 [1]) | IC50 (LAT1 [2]) | Structure (SMILES) | activation of BMP reporter gene (BMP reporter gene)
1 | 49.3 ± 0.8 nM | 19.35 % of control | – | – | CCCC[C@H]1C(=O)N[C@@H](Cc2ccc(F)cc2)C(=O)N(C)CC/C=C/C(=O)OCC(C)(C)C(=O)C(=O)N2CCCC[C@H]2C(=O)O[C@H](CCc2ccc(OC)c(OC)c2)c2cccc(c2)OCC(=O)N(C)CC(=O)N[C@@H](Cc2cccs2)C(=O)N1C [JH7] | did not activate
2 | – | – | 1110 ± 210 nM | 960 ± 90 nM | Nc1cc(COc2c(Cl)cc(C[C@H](N)C(=O)O)cc2Cl)c2oc(-c3ccccc3)nc2c1 [JPH203] | –

From publication PMC11076738, “A rapid and simple non-radioactive assay for measuring uptake by solute carrier transporters” (Frontiers in Pharmacology, 2024)
